This is an account of results in paper PMC8802628, “Selective activation of PFKL suppresses the phagocytic oxidative burst” (Cell, 2021).

One assay addresses T1, GSDMD (Homo sapiens, UniProt P57764).
T1 sequence (P57764 1-484): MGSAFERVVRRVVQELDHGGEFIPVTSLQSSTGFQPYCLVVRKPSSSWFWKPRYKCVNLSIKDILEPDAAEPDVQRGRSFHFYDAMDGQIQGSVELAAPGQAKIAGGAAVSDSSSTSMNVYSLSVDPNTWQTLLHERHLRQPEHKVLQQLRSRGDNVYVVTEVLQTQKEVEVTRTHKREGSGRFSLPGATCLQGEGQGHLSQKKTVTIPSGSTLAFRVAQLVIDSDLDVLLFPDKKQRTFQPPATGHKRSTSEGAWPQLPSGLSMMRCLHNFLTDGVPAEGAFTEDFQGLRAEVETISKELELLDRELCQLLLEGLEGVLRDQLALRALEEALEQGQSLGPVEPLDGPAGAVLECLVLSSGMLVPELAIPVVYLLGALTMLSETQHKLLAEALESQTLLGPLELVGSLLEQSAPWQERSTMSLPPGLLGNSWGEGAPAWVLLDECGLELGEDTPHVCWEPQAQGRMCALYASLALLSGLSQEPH
As to the kind of experiment: LPS-induced cleavage of GSDMD in monocytes (western blot). The format is cell-based. Set-up: endogenous in cells; host or cells: primary human monocytes electroporated with LPS. The following applies: monocytes electroporated with LPS. The procedure:
LDH released into the culture medium was measured 1-3 h post-activation using a CellTox Green Cytotoxicity assay (Promega). IL-1β secretion was measured using a MSD Cytokine Assay, 96-well multi-array Tissue Culture Kit (Meso Scale Discovery). For immunoblotting, monocytes (2 × 10^6) were treated with 10-50 μM LCD7559 or 50 μM VX765 and electroporated with 25 μg/mL LPS using the NEON electroporation system. Cells were lysed after 1 h using lysis buffer (50 mM Tris pH 7.4, 150 mM NaCl, 10% glycerol, 1% NP-40, 1 mM MgCl and 1X Roche cOmplete protease inhibitor cocktail) and protein concentration was determined via BCA protein assay (Peirce). Antibodies for immunoblotting were GSDMD (L60, Cell Signaling Technologies), cleaved GSDMD-Asp275 (E7H9G, Cell Signaling Technologies) and GAPDH (14C10, Cell Signaling Technologies).

For assay [1], the system named is PMNs. The assay is described as follows: Phagocytosis of zymosan particles by PMNs. It is filed as cell-based, human. The following applies: neutrophils, zymosan 2 h. As to the method: Figure S7. NA-11 activates PFKL to prevent the oxidative burst and impair neutrophil defenses, related to Figures 4 and 6
(A) PFK1 activity in PMN lysates. Cells were pretreated with 0.5 mM NA-11, 5 mM LDC7559, 100 mM apocynin, 200 mM thionicotinamid e (TN), 1 mM MEK inhibitor U0126, or DMSO vehicle for 30 min, or 1 mM proteasome inhibitor bortezomib for 1 h, and then activated with 50 nM PMA for 30 min where indicated. Bars represent the mean ± s.d. of cells from 3 donors. (B) NADH:NAD+ ratio in PMA-activated PMNs. Cells were pretreated with 0.5 mM NA-11 or DMSO vehicle for 30 min, and then activated with 50 nM PMA for 30 min. Data are the mean ± s.d. of cells from 3 donors. (C) Immunolabeling of citrullinated histone H3 (magenta) and myeloperoxidase (red) in PMNs pretreated with 0.5 mM NA-11 or DMSO vehicle for 30 min and then stimulated for 4 h with 50 nM PMA, 10 mg/mL extracellular LPS, 0.5 mg/mL cholesterol crystals, or 25 mM nigericin. Chromatin is stained green. Scale bar, […]. Results are representative of 3 independent experiments.
(D) Fluorescence micrographs of PMNs pretreated with 0.5 mM NA-11, 200 mM thionicotinamide (TN), 0.5 mM NA-4, or DMSO vehicle for 30 min, and then incubated with serum-opsonized Texas Red-conjugated zymosan particles (10 mg/mL) for 2 h. […]

For assay [2], the system named is PMNs. The assay is described as follows: NADPH/NADP+ detection assay in neutrophils. It is filed as cell-based, human. The procedure:
The ratio of NADPH/NADP^+ (or NADH/NAD^+) was calculated after measuring the individual concentrations of NADPH and NADP^+ (or NADH and NAD^+) with NADP/NADPH-Glo (or NAD/NADH-Glo) assays (Promega). […] Cells were lysed in plates by addition of 1% dodecyltrimethylammonium bromide (DTAB). To measure NADPH, half of the samples was heated at 60 °C for 30 min. The other half was treated with HCl before heating to 60°C, to measure NADP^+. All samples were neutralized before adding luciferase detection reagent, then incubated for 1 h with gentle shaking. Luminescence was recorded on a plate reader (Envision).

As for `COc1ccccc1-c1cc2n(n1)Cc1ccc(NC(C)=O)cc1OC2` [LDC7559, reference compound], the “LPS-induced cleavage of GSDMD” value on GSDMD was “did not prevent LPS-induced cleavage of GSDMD”.

Regarding `CC(=O)Nc1ccc2c(c1)OCc1cc(-c3ccccc3C#CCCCO)nn1C2` [NA-11], in the assay on PMNs [1], the “phagocytosis (intracellular zymosan particles)” value was “neither NA-11 nor TN affected phagocytosis”. Also, the “NADPH replenishment / turnover after apocynin” value in the assay on PMNs [2] (PMA 30 min, then apocynin) is “slower to replenish NADPH”. Moreover, the “NADPH/NADP+ ratio in resting cells” value in the assay on PMNs [2] (resting neutrophils) is listed as “did not change the NADPH/NADP^+ ratio”.
